Test system: MV-4-11 xenografts
Assay: MV-4-11 xenograft model of human AML in CD-1 Nude mice
Format: in vivo
Details: 0.5 mg/kg IP, QW×4 vs vehicle; p=0.137
Procedure: Female 8- to 10-week-old CD-1 Nude mice (Charles River Laboratories) with established MV-4-11 xenografts were treated for 21 days (n=8). MV-4-11 cells is a human AML cell line which endogenously expresses a Fms Related Receptor Tyrosine Kinase 3 (FLT3) internal tandem duplication (ITD) mutation. Animal weights were monitored daily, and tumor volume was measured three times per week. Tumor volume (mm^3) was defined as follows, length×width^2/2. Percentage tumor growth inhibition (% TGI) was defined as follows, 100×[1−(TVf,treated−TVi,treated)/(TVf,control−TVi,control)], where TVf is the average tumor volume at the end of study, and TVi is the average tumor volume at the initiation of treatment. In cases where tumor regression occurred, percentage tumor regression was defined as follows, 100×[1−(TVf,treated/TVi,treated)]. At the completion of the study, the mice were sacrificed by an anesthetic overdose. The Institutional Animal Care and Use Committee of the University Health Network approved all animal procedures. […] Data are represented as mean±SEM. p values were calculated using Student's/test.

Compound: CC[C@]1(O)C[C@H]2CN(CCc3c([nH]c4ccccc34)[C@@](C(=O)OC)(c3cc4c(cc3OC)N(C=O)[C@H]3[C@@](O)(C(=O)OC)[C@H](OC(C)=O)[C@]5(CC)C=CCN6CC[C@]43[C@@H]65)C2)C1 [Vincristine, reference compound]
- Day 10 TGI (tumor growth inhibition): 62%

From US20250049787A1, “TREATMENT FOR ACUTE MYELOID LEUKEMIA OR LYMPHOMA” (UNIVERSITY HEALTH NETWORK, priority 2021, published 2025)
